Columns and labels:
GS28 mRNA = GS28 mRNA by RT-PCR in human PBL; type: cell-based; conditions: 3 to 16 hours following addition of drug
Method: Human buffy coats were purchased from the San Diego Blood Bank. Buffy Coat was purified of red blood cells using Histopaque-1077 following Sigma Diagnostic protocol. Lymphocytes (20 million) were then cultured in 75 cm2 flasks in cDMEM (+/−stimulus & AVP 893) for either 4 or 24 hrs. Cells were harvested and reconstituted in a Guanidine/Phenol solution essentially as described by Maniatis. The aqueous layer was removed and washed with Guanidine solution and finally 70% EtOH. RNA purity was checked by spectrophotometer. RT-PCR (36 cycles) was performed following the RT-PCR One-Step protocol (Qiagen). Similar results were obtained when testing mRNA samples obtained from other cell sources (not shown).

Rab1a = Rab1a expression by Western blotting; type: cell-based; conditions: 3T3 cells
Method: (§1) Protein samples (in sample buffer) were boiled for 1-3 minutes and put on ice. Same amount of protein were loaded on the NuPage gel (InVitrogen). After the electrophoresis was complete, proteins were transferred from the gel to a PVDF membrane using the electro-blotting apparatus from InVitrogen; the voltage was set to 25 for 2-3 hr. Block non-specific binding by incubating membrane with 5% milk (in PBS, 0.1% tween 20) for at least 30 min at room temperature or overnight at 4° C. The blocked membrane was incubated with primary antibody (See TABLE 2) diluted in 5% milk for 1 hour at room temperature. Optimal antibody dilution depends on the company, the amount of protein. Dilutions of 1:1000 were generally used for the primary antibodies from Santa Cruz. The membrane was washed with PBS, 0.1% tween 3-4 times 5 mins. The membrane was incubated for 30-60 minutes at room temperature with horseradish peroxidase (HRP) conjugated secondary antibody diluted in 5% milk. We usually used 1:4000 dilution for the secondary antibody from Santa Cruz. The membrane was washed 3-4 times with PBS, 0.1% tween, each time 15 minutes. The detection solutions A and B were mixed in a ratio 40:1 and Pipetted onto the membrane, and incubated for 5 min at RT. A sheet of Hyper film ECL was placed on the top of the membrane in the dark and exposed for 1 min, or adjust accordingly. […]

Rab1b = Rab1b expression by Western blotting; type: cell-based
Method: as §1

B16-F10 cells = assay: PowerBlot screen of expression of over 950 proteins; type: cell-based, mouse; conditions: 100 ng/ml, 16 hr
Method: A second series of experiments tested the activity of AVP 893 on the expression of over 950 proteins by Western blotting in vitro (in triplicate); methods detailed below. B16 tumor cells were chosen for this screen and a 16 hour duration of AVP 893 treatment was selected to optimize the number of proteins that might be modified by drug. […] B16-F10 cells were cultured for 16 hr in the presence or absence of 100 ng/ml AVP 893. Samples were harvested and lysates prepared according to instructions supplied by Becton-Dickinson. Samples were placed on dry ice and submitted to the same for expression analysis of 950 proteins. […] Although both proteins have entirely different functions in the cell, and have not been linked (apparently) in the scientific literature, there is a rational explanation for the changes noted in each protein, as described below.

GS28 = GS28 expression by Western blotting; type: cell-based; conditions: for GS28 expression: 100 ng/ml
Method: The culture medium was removed by vacuuming (for attached cells) or by low speed centrifugation (for suspension cells) for 5-7 minutes at room temperature. The cells were wasedh twith PBS, spun at 1200 rpm and the cell pellets were kept on ice. 300 μl/2.0×10^7 cells of ice cold lysis buffer was added with freshly added protease inhibitors. Cell pellets were gently resuspended and incubated on ice for at least 30 min, vortexed a few times during incubation. Cell lysate was spun at 14,000 rpm for 2-5 min at 4° C. The supernatant was transferred to a new microfuge tube and the pellet was discarded. An aliquot of sample was mixed with an equal volume of 2× sample buffer (InVitrogen), and stored at −80° C. Protein concentration was determined by using “BCA protein assay reagent kit” from Pierce.
Protein samples (in sample buffer) were boiled for 1-3 minutes and put on ice. Same amount of protein were loaded on the NuPage gel (InVitrogen). After the electrophoresis was complete, proteins were transferred from the gel to a PVDF membrane using the electro-blotting apparatus from InVitrogen; the voltage was set to 25 for 2-3 hr. Block non-specific binding by incubating membrane with 5% milk (in PBS, 0.1% tween 20) for at least 30 min at room temperature or overnight at 4° C. The blocked membrane was incubated with primary antibody (See TABLE 2) diluted in 5% milk for 1 hour at room temperature. Optimal antibody dilution depends on the company, the amount of protein. Dilutions of 1:1000 were generally used for the primary antibodies from Santa Cruz. The membrane was washed with PBS, 0.1% tween 3-4 times 5 mins. The membrane was incubated for 30-60 minutes at room temperature with horseradish peroxidase (HRP) conjugated secondary antibody diluted in 5% milk. We usually used 1:4000 dilution for the secondary antibody from Santa Cruz. The membrane was washed 3-4 times with PBS, 0.1% tween, each time 15 minutes. The detection solutions A and B were mixed in a ratio 40:1 and Pipetted onto the membrane, and incubated for 5 min at RT. A sheet of Hyper film ECL was placed on the top of the membrane in the dark and exposed for 1 min, or adjust accordingly.
To further examine the putative protein trafficking effects of AVP 893, other proteins in this pathway were tested in vitro in B16 and other cell lines. The effect of AVP 893 on cellular proteins was corroborated in B16 cells and extended to include a time-course (FIG. 17). B16-F10 tumor cells were seeded in T75 flasks at 20% confluence and cultured overnight. AVP 893 (100 ng/ml) was added to several flasks and one flask of cells was harvested at several time points following addition of compound. Lysates were prepared, separated by electrophoresis, and probed with antibody as described above in the general Western blotting protocol. Drug effects on GS28 and nicastrin paralleled each other and were progressively stronger with longer drug incubations. […] Other cell lines were tested for their expression of GS28 and nicastrin and found to respond similarly to drug, although quantitative differences were evident. Tumor cell lines found to respond similarly to AVP 893 include CAK1, SF295, PC3, MOLT4, Neuro2a, and RBL (FIGS. 18, 19, and 20). For the experiment shown in FIG. 18, LOX, CAKI, and 3T3 cell lines were treated as described for FIG. 17. For the results shown in FIG. 19, SF295, PC3, MOLT-4, and Neuro2a cells were treated as described for FIG. 17. For the results shown in FIG. 20, LOX, 3T3, and RBL cell lines were treated with varying concentrations of AVP 893 as described for FIG. 17. The effects on LOX cells were less evident. […] Levels of calnexin, a resident ER protein used as a control, were unchanged in drug-treated cells.

MOLT4 cells = assay: Electron microscopic analysis of golgi structure; type: cell-based; conditions: 200 ng/mL, 2 hrs and 18 hrs
Method: Experiments were conducted to examine the golgi structure and morphology on the ultrastructural level following treatment with AVP 893. […] This finding was repeated with Vero cells, where AVP 893 was applied for 1 hr, 4 hrs, and 18 hrs, with the later two exposures resulting in disruption of cisternal structure (data not shown). We therefore conclude that AVP 893 disturbs the structure of the golgi cistemae within a few hours of treatment.

In the case of O=C(Nc1ccc(-c2nc3cc(NC(=O)C4CCCCC4)ccc3[nH]2)cc1)C1CCCCC1 [AVP 893], the “level of GS28 mRNA” value (GS28 mRNA) is reported as “did not affect the level of GS28 mRNA”, the Rab1a expression (Rab1a) is reported as “mild response” and the Rab1b expression (Rab1b; 3T3 cells) is reported as “not affected in 3T3 cells”. For the same compound, the Rab1b expression (Rab1b; spleen cells) was “suppressed in spleen cells”, the “number of proteins consistently and significantly modified of over 950” value (B16-F10 cells) was 6 and the “expression of GS28 and GS15 compared with monensin, Brefeldin A, rapamycin” value (GS28; 3T3 cells, 200 ng/ml, 18 hour) was “decreased the expression of GS28 and GS15 more markedly than the other three agents”. For the same compound, the “IC50 for GS28 expression” value (GS28; 3T3 cells, overnight) was 10 and 100 ng/ml, the “levels of GS28” value (GS28; 3T3 fibroblast cell line) was “virtually eliminated” and the GS28 expression (GS28; B16 cells, two days of culture) was “complete loss of GS28”. For the same compound, the “GS28 or nicastrin expression” value (GS28; resistant line H-460, overnight) was “little effect”, the GS28 expression (GS28; stimulated BALB/c spleen cells, 20 hours) was “abrogated” and the “golgi structure by electron microscopy” value (MOLT4 cells) was “no golgi cisternae were found”.
